Data reported in ChEMBL document CHEMBL1201862, “PubChem BioAssay data set” (2004).
Activity calls are given as the source filed them.

Tests used:
Format in all cases: functional
Aurora kinase B = Aurora kinase B (Homo sapiens, UniProt Q96GD4)
[1] = target: Vascular endothelial growth factor receptor 2 (Homo sapiens, UniProt P35968)
Aurora kinase A = target: T1, Aurora kinase A (Homo sapiens, UniProt O14965);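 note: value from the Navigating the Kinome kinase panel profiling, panel entry STK6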
T1 sequence (O14965 whole entry): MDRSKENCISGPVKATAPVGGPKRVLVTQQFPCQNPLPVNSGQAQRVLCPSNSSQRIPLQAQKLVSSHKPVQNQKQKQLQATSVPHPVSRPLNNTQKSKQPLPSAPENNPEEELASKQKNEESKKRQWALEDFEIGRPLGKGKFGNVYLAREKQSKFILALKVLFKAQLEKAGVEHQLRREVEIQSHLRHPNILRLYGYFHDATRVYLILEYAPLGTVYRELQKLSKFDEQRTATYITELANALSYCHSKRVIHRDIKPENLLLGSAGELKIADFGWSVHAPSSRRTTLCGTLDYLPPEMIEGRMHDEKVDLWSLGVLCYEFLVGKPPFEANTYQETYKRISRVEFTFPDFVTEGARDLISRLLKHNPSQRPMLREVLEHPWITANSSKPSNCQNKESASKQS

Phospholipase D1 = target: T2, Phospholipase D1 (Homo sapiens, UniProt Q13393); assay: PLD1 inhibitor potency in cells, dose response (AID 602151);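 note: cellular PLD1 assay in Calu-1 cells stimulated with PMA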
T2 sequence (Q13393 whole entry): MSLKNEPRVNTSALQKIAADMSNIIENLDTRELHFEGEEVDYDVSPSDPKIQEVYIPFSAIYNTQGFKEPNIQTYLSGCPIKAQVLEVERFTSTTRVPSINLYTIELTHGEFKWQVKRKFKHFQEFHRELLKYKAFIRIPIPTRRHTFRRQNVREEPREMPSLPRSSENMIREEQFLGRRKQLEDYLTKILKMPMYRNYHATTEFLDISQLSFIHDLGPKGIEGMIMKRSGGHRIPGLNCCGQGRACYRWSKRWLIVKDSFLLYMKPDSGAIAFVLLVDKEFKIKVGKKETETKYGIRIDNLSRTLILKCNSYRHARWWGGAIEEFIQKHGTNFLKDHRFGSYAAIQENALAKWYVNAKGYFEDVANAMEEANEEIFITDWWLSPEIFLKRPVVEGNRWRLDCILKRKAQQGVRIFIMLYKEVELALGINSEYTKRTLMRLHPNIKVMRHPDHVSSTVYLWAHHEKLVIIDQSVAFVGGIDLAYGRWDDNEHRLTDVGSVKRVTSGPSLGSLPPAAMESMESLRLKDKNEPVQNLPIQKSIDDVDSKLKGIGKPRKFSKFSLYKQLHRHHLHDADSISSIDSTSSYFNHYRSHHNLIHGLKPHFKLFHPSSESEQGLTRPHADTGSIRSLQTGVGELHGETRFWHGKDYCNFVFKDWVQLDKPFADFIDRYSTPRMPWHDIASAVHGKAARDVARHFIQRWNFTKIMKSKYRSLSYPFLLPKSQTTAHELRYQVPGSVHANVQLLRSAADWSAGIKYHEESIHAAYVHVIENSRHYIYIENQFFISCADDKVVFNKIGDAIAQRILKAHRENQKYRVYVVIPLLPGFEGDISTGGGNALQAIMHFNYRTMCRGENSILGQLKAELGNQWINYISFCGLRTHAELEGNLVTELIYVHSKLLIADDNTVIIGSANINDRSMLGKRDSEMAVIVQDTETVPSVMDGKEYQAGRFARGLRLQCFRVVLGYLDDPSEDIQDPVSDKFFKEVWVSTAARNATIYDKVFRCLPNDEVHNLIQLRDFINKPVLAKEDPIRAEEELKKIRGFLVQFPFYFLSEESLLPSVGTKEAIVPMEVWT

Phospholipase D2 = Phospholipase D2 (Homo sapiens, UniProt O14939); assay: PLD2 inhibitor potency in cells, dose response (AID 602147);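 note: cellular assay in HEK293 cells overexpressing GFP-tagged PLD2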
[2] = target: T3, Sentrin-specific protease 8 (Homo sapiens, UniProt Q96LD8);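 note: luminescence read-out of SENP8 inhibition, dose-response confirmation following an ultra-high-throughput screen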
T3 sequence (Q96LD8 whole entry): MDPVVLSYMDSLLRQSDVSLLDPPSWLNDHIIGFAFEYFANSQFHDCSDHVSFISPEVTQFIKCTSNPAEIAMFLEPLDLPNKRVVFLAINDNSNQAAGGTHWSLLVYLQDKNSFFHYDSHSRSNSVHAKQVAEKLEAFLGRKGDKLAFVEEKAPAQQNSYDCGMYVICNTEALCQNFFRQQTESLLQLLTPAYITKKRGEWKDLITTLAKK

H4 = assay: Luminescence Cell-Based Dose Response HTS to Identify Activators of 5'UTR Stem-Loop Driven Prion Protein mRNA Translation in H4 Neuroglioblastoma Cells. [Related pubchem assays: 1829 (Project Summary), 1814 (Primary HTS)]; settings: Homo sapiens
[3] = target: T4, Sentrin-specific protease 7 (Homo sapiens, UniProt Q9BQF6);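 note: Luminescence-based dose-response confirmation of ultra-high-throughput screening hits, measuring inhibition of SENP7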
T4 sequence (Q9BQF6 whole entry): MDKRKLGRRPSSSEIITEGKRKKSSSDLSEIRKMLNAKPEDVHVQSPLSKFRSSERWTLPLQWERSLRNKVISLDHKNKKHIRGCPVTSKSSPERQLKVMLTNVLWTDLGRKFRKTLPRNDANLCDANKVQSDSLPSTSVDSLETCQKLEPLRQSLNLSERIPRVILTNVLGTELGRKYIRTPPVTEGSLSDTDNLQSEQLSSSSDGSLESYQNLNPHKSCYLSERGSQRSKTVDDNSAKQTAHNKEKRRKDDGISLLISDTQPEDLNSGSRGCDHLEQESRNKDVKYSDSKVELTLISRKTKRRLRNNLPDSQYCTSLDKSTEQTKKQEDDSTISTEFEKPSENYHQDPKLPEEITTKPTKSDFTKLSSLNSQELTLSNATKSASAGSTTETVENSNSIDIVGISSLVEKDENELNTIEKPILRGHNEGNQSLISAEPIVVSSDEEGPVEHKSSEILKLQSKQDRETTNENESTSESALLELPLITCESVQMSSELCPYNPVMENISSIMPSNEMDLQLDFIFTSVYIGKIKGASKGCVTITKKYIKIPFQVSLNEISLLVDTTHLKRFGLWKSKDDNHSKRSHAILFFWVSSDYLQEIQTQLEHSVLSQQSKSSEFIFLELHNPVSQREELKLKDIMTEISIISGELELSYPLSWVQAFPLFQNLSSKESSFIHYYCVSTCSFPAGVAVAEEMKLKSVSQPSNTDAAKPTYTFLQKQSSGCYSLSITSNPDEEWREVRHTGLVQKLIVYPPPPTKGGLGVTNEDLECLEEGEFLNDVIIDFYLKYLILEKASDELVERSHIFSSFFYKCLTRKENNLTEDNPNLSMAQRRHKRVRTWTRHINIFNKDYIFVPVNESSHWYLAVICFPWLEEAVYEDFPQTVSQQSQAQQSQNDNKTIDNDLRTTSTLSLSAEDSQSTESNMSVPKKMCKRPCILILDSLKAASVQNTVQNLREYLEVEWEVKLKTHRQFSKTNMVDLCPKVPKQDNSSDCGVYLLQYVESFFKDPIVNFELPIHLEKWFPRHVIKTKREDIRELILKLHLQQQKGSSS

Caspase-3 = target: T5, Caspase-3 (Homo sapiens, UniProt P42574);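 note: Dose-response selectivity test against caspase-3 for candidate inhibitors of sentrin-specific proteases (SENPs)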
T5 sequence (P42574 whole entry): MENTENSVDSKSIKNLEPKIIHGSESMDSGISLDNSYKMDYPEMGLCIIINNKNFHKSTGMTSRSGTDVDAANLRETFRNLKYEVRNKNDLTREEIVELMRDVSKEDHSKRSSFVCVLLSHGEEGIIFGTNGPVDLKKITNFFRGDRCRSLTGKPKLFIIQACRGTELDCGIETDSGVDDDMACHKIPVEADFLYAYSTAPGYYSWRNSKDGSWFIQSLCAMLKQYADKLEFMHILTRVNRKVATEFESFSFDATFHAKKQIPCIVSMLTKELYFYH

[4] = target: T6, Sentrin-specific protease 6 (Homo sapiens, UniProt Q9GZR1);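 note: Luminescence-based dose-response confirmatory assay of SENP6 inhibition, following up an ultra-high-throughput screen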
T6 sequence (Q9GZR1 whole entry): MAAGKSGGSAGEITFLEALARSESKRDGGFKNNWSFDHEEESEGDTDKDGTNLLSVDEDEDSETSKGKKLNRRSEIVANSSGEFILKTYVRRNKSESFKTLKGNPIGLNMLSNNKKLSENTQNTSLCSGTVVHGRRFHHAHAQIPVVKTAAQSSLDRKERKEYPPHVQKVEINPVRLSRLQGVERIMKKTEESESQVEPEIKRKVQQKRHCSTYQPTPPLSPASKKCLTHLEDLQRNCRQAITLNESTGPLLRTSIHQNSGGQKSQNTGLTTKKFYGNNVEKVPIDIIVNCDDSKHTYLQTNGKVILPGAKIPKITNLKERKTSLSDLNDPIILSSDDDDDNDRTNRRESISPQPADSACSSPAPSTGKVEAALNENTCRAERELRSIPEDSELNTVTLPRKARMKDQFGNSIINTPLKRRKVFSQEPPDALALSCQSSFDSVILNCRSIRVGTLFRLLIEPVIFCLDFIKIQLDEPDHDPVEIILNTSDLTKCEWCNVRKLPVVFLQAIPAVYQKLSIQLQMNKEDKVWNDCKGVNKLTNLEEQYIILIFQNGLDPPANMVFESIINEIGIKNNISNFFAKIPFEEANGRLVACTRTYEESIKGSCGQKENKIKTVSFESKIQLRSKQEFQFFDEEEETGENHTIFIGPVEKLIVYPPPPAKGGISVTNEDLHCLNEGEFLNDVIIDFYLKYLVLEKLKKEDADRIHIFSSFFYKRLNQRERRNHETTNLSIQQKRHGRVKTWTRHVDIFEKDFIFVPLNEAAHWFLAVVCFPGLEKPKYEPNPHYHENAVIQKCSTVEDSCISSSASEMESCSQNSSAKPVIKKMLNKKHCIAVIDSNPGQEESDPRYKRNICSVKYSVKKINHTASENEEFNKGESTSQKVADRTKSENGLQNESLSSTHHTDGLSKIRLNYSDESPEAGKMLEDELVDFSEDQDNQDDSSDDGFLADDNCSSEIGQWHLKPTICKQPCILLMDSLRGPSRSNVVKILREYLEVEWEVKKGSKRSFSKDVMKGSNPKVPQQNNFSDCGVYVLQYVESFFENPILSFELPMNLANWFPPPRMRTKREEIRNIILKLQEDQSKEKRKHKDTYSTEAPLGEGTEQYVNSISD

[5] = Luminescence Cell-Based Dose Response HTS to Identify Activators of Luciferase Translation or Activity in H4 […] Cells. [Related pubchem assays: 1829 (Project Summary), 1814 (Primary HTS)]

Phospholipase D2, sequence (O14939 whole entry): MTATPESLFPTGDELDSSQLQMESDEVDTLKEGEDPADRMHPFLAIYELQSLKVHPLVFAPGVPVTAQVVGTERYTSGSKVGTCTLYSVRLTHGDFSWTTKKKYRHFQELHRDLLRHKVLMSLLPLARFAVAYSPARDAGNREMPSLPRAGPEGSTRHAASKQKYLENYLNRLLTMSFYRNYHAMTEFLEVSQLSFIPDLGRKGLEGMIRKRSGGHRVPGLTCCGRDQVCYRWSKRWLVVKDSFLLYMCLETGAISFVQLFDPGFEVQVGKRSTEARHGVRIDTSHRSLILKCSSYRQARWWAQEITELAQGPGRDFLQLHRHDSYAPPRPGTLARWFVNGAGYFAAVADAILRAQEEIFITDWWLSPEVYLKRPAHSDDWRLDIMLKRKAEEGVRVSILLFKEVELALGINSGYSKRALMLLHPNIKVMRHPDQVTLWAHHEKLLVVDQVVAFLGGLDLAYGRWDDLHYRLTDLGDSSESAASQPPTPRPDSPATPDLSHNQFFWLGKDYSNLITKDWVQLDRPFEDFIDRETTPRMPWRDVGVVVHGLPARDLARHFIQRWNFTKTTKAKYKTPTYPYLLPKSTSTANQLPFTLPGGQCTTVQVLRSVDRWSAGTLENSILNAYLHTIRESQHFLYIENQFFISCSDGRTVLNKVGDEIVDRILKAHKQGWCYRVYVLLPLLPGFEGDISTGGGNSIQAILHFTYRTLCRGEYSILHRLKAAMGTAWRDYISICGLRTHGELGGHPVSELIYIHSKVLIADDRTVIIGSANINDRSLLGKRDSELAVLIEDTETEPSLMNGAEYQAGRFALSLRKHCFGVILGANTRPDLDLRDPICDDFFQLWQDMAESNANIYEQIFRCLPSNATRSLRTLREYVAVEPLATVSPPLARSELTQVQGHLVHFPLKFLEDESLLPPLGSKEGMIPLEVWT
Vascular endothelial growth factor receptor 2, sequence (P35968 whole entry): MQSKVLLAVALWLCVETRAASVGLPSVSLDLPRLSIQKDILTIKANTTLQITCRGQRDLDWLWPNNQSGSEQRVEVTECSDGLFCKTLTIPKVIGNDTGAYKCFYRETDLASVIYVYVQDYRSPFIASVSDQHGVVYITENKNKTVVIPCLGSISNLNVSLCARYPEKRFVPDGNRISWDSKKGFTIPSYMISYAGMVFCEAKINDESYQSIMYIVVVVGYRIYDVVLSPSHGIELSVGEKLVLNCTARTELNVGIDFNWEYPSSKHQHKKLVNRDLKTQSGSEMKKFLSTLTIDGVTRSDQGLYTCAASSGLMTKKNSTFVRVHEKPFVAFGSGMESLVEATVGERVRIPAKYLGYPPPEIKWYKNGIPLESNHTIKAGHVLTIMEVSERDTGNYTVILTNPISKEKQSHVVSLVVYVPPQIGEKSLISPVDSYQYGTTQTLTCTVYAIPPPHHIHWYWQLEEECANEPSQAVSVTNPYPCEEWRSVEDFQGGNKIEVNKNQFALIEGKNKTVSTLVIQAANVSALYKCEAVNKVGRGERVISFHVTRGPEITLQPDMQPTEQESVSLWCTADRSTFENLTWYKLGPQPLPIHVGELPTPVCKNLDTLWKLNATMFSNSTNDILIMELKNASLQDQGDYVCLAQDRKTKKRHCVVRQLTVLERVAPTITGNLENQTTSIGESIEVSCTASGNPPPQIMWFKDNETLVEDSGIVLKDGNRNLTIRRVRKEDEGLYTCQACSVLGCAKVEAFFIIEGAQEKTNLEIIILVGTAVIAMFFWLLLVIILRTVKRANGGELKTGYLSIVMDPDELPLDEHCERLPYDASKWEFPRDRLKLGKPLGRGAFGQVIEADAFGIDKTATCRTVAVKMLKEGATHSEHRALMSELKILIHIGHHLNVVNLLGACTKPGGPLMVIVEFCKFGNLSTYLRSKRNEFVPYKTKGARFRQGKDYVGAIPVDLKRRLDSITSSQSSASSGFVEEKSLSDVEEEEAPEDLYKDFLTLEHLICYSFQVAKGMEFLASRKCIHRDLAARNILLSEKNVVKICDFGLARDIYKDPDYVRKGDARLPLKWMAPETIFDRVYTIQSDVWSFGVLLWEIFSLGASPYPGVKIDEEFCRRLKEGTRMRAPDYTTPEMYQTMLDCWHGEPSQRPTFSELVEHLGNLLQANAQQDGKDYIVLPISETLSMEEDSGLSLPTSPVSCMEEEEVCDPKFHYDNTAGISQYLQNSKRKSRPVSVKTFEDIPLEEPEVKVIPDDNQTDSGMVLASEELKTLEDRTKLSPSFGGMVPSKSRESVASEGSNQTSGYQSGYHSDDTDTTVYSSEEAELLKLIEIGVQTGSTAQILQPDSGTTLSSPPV
Aurora kinase B, sequence (Q96GD4 whole entry): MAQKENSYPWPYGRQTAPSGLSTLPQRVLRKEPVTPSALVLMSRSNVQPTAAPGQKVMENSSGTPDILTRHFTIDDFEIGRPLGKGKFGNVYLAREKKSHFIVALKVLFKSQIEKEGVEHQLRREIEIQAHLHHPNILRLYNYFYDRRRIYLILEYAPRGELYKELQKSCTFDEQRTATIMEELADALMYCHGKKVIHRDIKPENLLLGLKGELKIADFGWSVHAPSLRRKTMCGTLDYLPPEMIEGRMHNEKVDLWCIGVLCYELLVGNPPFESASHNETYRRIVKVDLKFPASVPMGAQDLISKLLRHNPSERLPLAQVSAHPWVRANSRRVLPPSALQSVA

CCCCS(=O)(=O)Nc1ccc2c(c1)C(=NO)c1ccccc1-2
active: Ki (Aurora kinase B) 0.01 µM | Ki [1] 1.58 µM | Ki (Aurora kinase A) 1.26 µM

C[C@H](CN1CCC2(CC1)C(=O)NCN2c1ccccc1)NC(=O)c1cc2cc(F)ccc2[nH]1
active: IC50 (Phospholipase D1) 0.002 µM | IC50 (Phospholipase D2) 0.023 µM

C[C@@H](CN1CCC2(CC1)C(=O)NCN2c1ccccc1)NC(=O)[C@@H]1C[C@H]1c1ccccc1
active: IC50 (Phospholipase D1) 2.56 µM | IC50 (Phospholipase D2) 20 µM

CN(CCN1CCC(n2c(=O)[nH]c3ccccc32)CC1)C(=O)c1ccc2ccccc2c1
active: IC50 (Phospholipase D1) 2.06 µM | IC50 (Phospholipase D2) 20 µM

COc1ccc(-c2cc(O)cc(O)c2)cc1
active: IC50 [2] 48 µM | EC50 (H4) 4.12 µM | IC50 [3] 12.3 µM | IC50 (Caspase-3) 30.9 µM | IC50 [4] 41.1 µM | EC50 [5] 3.8 µM

COc1ccc(COC(=O)c2c(C)nn(-c3ccccc3)c2Cl)cc1
active: IC50 [2] 98.1 µM | IC50 [3] 19.4 µM | IC50 (Caspase-3) 40.2 µM | IC50 [4] 73.3 µM
